Consider ten compounds from US20170008888A1 (KYORIN PHARMACEUTICAL CO., LTD., priority 2014, published 2017).

One assay concerns human PBMCs. In words: Human PBMC TNF-α response to endotoxin (ELISA). The class given is cell-based. The note with it: 0.1 μg/ml LPS 16 h, read-out: EC50 for the inhibition of the human PBMC TNF-α response to endotoxin, ave. ± S.D. The gist of the method: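 PBMCs at 2e6 cells/ml in RPMI 1640 with 10% charcoal-dextran-treated FBS were pre-treated 1 h at 37 °C with compound (4-point 1:5 dilution from 10 μM). Stimulation with 0.1 μg/ml E. coli 0111:B4 LPS for 16 h; TNF-α measured by ELISA (A450) in 25-fold diluted supernatant.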
(In general: In an ELISA, binding on a coated surface is turned into a signal by an enzyme label.)

Assay [1] addresses T1, recombinant human ERK5 catalytic domain (Homo sapiens, UniProt Q13164).
T1 construct: Recombinant human ERK5 catalytic domain radiometric assays; purchased Reaction Biology, Corp (Malvern, Pa.), which ran the assay as a service
In words: Recombinant human ERK5 radiometric (HotSpot) assay. The format is biochemical. The note with it: 10 μM ATP, 20 μM myelin basic protein substrate; read-out: rhERK5 IC50. A digest of the protocol: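 Radiometric filter-binding HotSpot assay using [γ-33P]-ATP tracer with 10 μM cold ATP and 20 μM myelin basic protein substrate. Compounds tested in 10-point, ⅓-fold serial dilution from 20 μM; […].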

Another assay has as its target T2, AurA (Homo sapiens, UniProt O14965).
T2 construct: screened for activity against several kinases in Jurkat cells; endogenous in cells; host or cells: Jurkat cell lysate
T2 sequence (O14965 1-403): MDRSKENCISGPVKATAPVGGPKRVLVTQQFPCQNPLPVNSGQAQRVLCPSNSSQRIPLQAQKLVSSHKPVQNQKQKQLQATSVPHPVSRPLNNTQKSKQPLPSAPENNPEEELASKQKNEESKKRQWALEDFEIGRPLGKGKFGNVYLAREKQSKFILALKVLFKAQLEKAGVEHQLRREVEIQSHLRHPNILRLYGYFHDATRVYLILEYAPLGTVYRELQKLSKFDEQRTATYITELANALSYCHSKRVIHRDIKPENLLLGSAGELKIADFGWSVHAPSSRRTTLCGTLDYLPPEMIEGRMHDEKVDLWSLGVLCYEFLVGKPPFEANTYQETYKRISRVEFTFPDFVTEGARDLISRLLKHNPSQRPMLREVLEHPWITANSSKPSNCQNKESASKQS
In words: Probe-based (AX9989) kinase profiling in Jurkat lysate: AurA. The format is binding. Particulars: read-out: AurA Inhibition % at indicated screening concentration; for inhibition at 1 µM: screening concentration 1 μM; for inhibition at 10 µM: screening concentration 10 μM. A digest of the protocol:
(§1)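 Compounds were pre-incubated for 15 min at room temperature with gel-filtered Jurkat cell lysate supplemented with 20 mM MnCl2, after which the acyl phosphate ATP probe AX9989 was added at 5 μM final. Labeled active-site peptides were enriched after tryptic digestion and measured by LC/MS, with percent inhibition taken relative to samples without compound.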

Another assay has as its system ABL or ARG. Description: Probe-based (AX9989) kinase profiling in Jurkat lysate: ABL or ARG. The class given is binding. A digest of the protocol: as §1
Another assay relates to AMPKa1 or AMPKa2. Description: Probe-based (AX9989) kinase profiling in Jurkat lysate: AMPKa1 or AMPKa2. The class given is binding. A digest of the protocol:
as §1

T1 sequence (Q13164 55-347 limits assumed): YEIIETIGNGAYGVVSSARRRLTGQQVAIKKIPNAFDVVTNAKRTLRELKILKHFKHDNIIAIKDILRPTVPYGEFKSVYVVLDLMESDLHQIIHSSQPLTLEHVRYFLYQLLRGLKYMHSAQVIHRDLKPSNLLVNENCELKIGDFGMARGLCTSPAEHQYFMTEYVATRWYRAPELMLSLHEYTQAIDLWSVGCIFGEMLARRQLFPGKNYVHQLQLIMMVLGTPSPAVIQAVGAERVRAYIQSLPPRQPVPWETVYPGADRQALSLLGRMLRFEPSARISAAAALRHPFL

As usually defined, the EC50 is the concentration that produces a half-maximal response. For orientation: IC50 means the midpoint of a concentration-inhibition curve. Take `CN1CCN(C2CCN(C(=O)c3ccc(Nc4cc5c(cn4)N(C)C(=O)c4ccccc4N5C)c(OCCF)c3)CC2)CC1` [Compound T34]: the EC50 in the assay with human PBMCs came to 490 ± 40 nM. Besides, in assay [1], the IC50 is less than 20 nM. Moreover, the inhibition at 1 µM on AurA is not above 35%. Also, the “ABL or ARG Inhibition % at indicated screening concentration” value (from here on “ABL or ARG Inhibition %”) in the assay on ABL or ARG (screening concentration 1 μM) is on record as “E (E is ≦35%)”. Moreover, in the assay on AMPKa1 or AMPKa2 (screening concentration 1 μM), the “AMPKa1 or AMPKa2 Inhibition % at indicated screening concentration” value (“AMPKa1 or AMPKa2 Inhibition %” below) is recorded as “E (E is ≦35%)”.

Turning to `CCOc1cc(C(=O)N2CCC(NC3CCN(C)CC3)C2)ccc1Nc1cc2c(cn1)N(C)C(=O)c1ccccc1N2C` (centres unmarked) [Compound T42], the EC50 in the assay with human PBMCs is 680 ± 450 nM. For the same compound, the IC50 in assay [1] lay in the range of 50 to 200 nM. Further, at AurA, the inhibition at 1 µM is not above 35%. The “ABL or ARG Inhibition %” value in the assay on ABL or ARG (screening concentration 1 μM) was “E (E is ≦35%)”. Moreover, in the assay on AMPKa1 or AMPKa2 (screening concentration 1 μM), the “AMPKa1 or AMPKa2 Inhibition %” value was “E (E is ≦35%)”.

For the compound `CCOc1cc(C(=O)N2CCC(N3CCN(C)CC3)CC2)ccc1Nc1cc2c(cn1)N(C)C(C(F)(F)F)c1ccccc1N2C` (centres unmarked) [Compound T47], the 50% effective concentration (EC50) in the assay with human PBMCs is 3970 nM. Also, in assay [1], the IC50 is more than 200 nM. Further, the inhibition at 10 µM at AurA was not above 35%. In the assay on ABL or ARG (screening concentration 10 μM), the “ABL or ARG Inhibition %” value is “E (E is ≦35%)”. Moreover, in the assay with AMPKa1 or AMPKa2 (screening concentration 10 μM), the “AMPKa1 or AMPKa2 Inhibition %” value is on record as “E (E is ≦35%)”.

As for `CC(C)Oc1cc(C(=O)N2CCC[C@H](O)C2)ccc1Nc1cc2c(cn1)N(C)C(=O)c1ccccc1N2C` [Compound T48], the concentration for a half-maximal effect (EC50) in the assay with human PBMCs is 740 nM. The IC50 in assay [1] was in the range of 50 to 200 nM. Besides, the inhibition at 10 µM on AurA was not above 35%. Further, the “ABL or ARG Inhibition %” value with ABL or ARG (screening concentration 10 μM) is given as “E (E is ≦35%)”. Moreover, the “AMPKa1 or AMPKa2 Inhibition %” value in the assay with AMPKa1 or AMPKa2 (screening concentration 10 μM) was “E (E is ≦35%)”.

Turning to `CC(C)Oc1cc(C(=O)N2CCN(C3CCN(C)CC3)CC2)ccc1Nc1cc2c(cn1)N(C)C(=O)c1ccccc1N2C` [Compound T49], in the assay with human PBMCs, the EC50 came out at 300 ± 120 nM. Also, the concentration for half-maximal inhibition (IC50) in assay [1] lay within 50 to 200 nM. In addition, on AurA, the inhibition at 1 µM is not above 35%. Besides, the “ABL or ARG Inhibition %” value in the assay on ABL or ARG (screening concentration 1 μM) was “E (E is ≦35%)”. For the same compound, in the assay on AMPKa1 or AMPKa2 (screening concentration 1 μM), the “AMPKa1 or AMPKa2 Inhibition %” value was “E (E is ≦35%)”.

Take `CC(C)Oc1cc(C(=O)N2CC[C@@H](NCCF)C2)ccc1Nc1cc2c(cn1)N(C)C(=O)c1ccccc1N2C` [Compound T50]: in the assay with human PBMCs, the EC50 was found to be 630 nM. Besides, the half-inhibitory concentration (IC50) in assay [1] was in the range of 50 to 200 nM. Besides, the inhibition at 1 µM at AurA is not above 35%. In addition, the “ABL or ARG Inhibition %” value with ABL or ARG (screening concentration 1 μM) was “E (E is ≦35%)”. Further, the “AMPKa1 or AMPKa2 Inhibition %” value with AMPKa1 or AMPKa2 (screening concentration 1 μM) is listed as “E (E is ≦35%)”.

For `CCOc1cc(C(=O)N2CCC(NCCF)C2)ccc1Nc1cc2c(cn1)N(C)C(C(F)(F)F)c1ccccc1N2C` (centres unmarked) [Compound T54], in the assay with human PBMCs, the EC50 is 7140 nM. Moreover, in assay [1], the 50% inhibitory concentration (IC50) was more than 200 nM. Moreover, on AurA, the inhibition at 10 µM is not above 35%. Moreover, the “ABL or ARG Inhibition %” value in the assay with ABL or ARG (screening concentration 10 μM) was “E (E is ≦35%)”. In addition, the “AMPKa1 or AMPKa2 Inhibition %” value in the assay on AMPKa1 or AMPKa2 (screening concentration 10 μM) was “E (E is ≦35%)”.

For the compound `CCOc1cc(C(=O)N2CCN(c3cccnc3)CC2)ccc1Nc1cc2c(cn1)N(C)C(=O)c1occc1N2C` [Compound T56], the EC50 with human PBMCs turned out to be 300 nM. In assay [1], the IC50 was less than 20 nM. The inhibition at 1 µM on AurA is not above 35%. Further, the “ABL or ARG Inhibition %” value with ABL or ARG (screening concentration 1 μM) was “E (E is ≦35%)”. Further, the “AMPKa1 or AMPKa2 Inhibition %” value in the assay on AMPKa1 or AMPKa2 (screening concentration 1 μM) was “E (E is ≦35%)”.

For `CCOc1cc(C(=O)N[C@H]2CC[C@H](O)CC2)ccc1Nc1cc2c(cn1)N(C)C(=O)c1ccccc1N2C` [Compound T62], the EC50 with human PBMCs stood at 490 ± 100 nM. In assay [1], the 50% inhibitory concentration (IC50) was more than 200 nM. Besides, the inhibition at 1 µM on AurA is not above 35%. The “ABL or ARG Inhibition %” value in the assay on ABL or ARG (screening concentration 1 μM) is listed as “E (E is ≦35%)”. Moreover, in the assay with AMPKa1 or AMPKa2 (screening concentration 1 μM), the “AMPKa1 or AMPKa2 Inhibition %” value is on record as “E (E is ≦35%)”.

On to `CCOc1cc(C(=O)N[C@H]2CC[C@@H](O)CC2)ccc1Nc1cc2c(cn1)N(C)C(=O)c1ccccc1N2C` [Compound T63], for which the half-maximal effective concentration (EC50) in the assay with human PBMCs came out at 750 nM. In addition, the IC50 in assay [1] is more than 200 nM. Besides, at AurA, the inhibition at 1 µM is not above 35%. Moreover, the “ABL or ARG Inhibition %” value with ABL or ARG (screening concentration 1 μM) is on record as “E (E is ≦35%)”. The “AMPKa1 or AMPKa2 Inhibition %” value in the assay on AMPKa1 or AMPKa2 (screening concentration 1 μM) is listed as “E (E is ≦35%)”.
